Results published in US10093973B2, “Polymerase compositions and methods” (LIFE TECHNOLOGIES CORPORATION, priority 2009, dated 2018).
Residue numbers refer to the chain shown, from its start.

Experiments:
Format in all cases: biochemical
[1] = test system: AF647-C6-dG6P in [enzyme.DNA.nucleotide] ternary complex with dideoxy-primer/template duplex; assay: Stopped-flow measurement of t−1 (nucleotide dissociation from ternary complex); set-up: unit not given here; settings: t−1 = 1/k−1; ternary complex with 7 μM AF647-C6-dG6P chased with 50 μM non-labeled nucleotide, 2 mM MnCl2
Protocol: Stopped-Flow Measurements of t−1
The stopped-flow techniques for measuring t−1 ([…]) followed the techniques described by M. Bakhtina (2009 Biochemistry 48:3197-3208).
The rate of the nucleotide dissociation ([…]) from the ternary complex of [enzyme.DNA.nucleotide] was measured in an Applied Photophysics SX20 stopped-flow spectrometer by monitoring changes […] a duplex Alexa fluor 546 dye-labeled-DNA template following the mixing of the [enzyme.DNA.labeled nucleotide] ternary complex with 50 μM cognate non-labeled deoxynucleoside triphosphate in a buffer containing 50 mM Tris-HCl (pH 7.5), 50 mM NaCl, 4 mM DTT, 0.2% BSA, and 2 mM MnCl2.
The ternary complexes were prepared using: 330 nM polymerase, 100 nM template/primer duplex, and 7 μM terminal phosphate-labeled nucleotides (AF647-C6-dG6P).
The averaged stopped-flow fluorescence traces (>1.5 msec) were fitted with a single exponential equation (2) to extrapolate the rate of the nucleotide dissociation (k−1) from the [enzyme.DNA.nucleotide] ternary complex. Fluorescence=A1*e^−k−1*t+C (equation 2) where A1 represents the corresponding fluorescence amplitude, C is an offset constant, and k−1 and the observed rate constants for the fluorescence transition.

primer-template duplex = assay: Fractional extension activity assay; settings: versus reference RB69 (SEQ ID NO: 15) and His-tagged Phi-29 (SEQ ID NO: 20); 330 nM enzyme, 1 μM dNTP, room temperature, 10 seconds
Protocol: The fractional extension activity of an exemplary modified polymerase having the amino acid of SEQ ID NO: 8 (referred to as “B104(exo-)” in FIG. 3) was measured and compared to the fractional extension activities of two different exemplary reference polymerases, including an RB69 reference polymerase comprising the amino acid sequence SEQ ID NO: 15 and a His-tagged Phi-29 reference polymerase comprising the amino acid sequence of SEQ ID NO: 20 (referred to herein as “HP1 polymerase”). All polymerases were prepared according to the method of Example 1. Both modified and reference polymerases were evaluated and compared in an assay to measure the fractional extension activity of each polymerase, i.e., the fraction of nucleic acid templates that are extended by at least one nucleotide in a polymerase reaction. In this assay, the fractional extension activity of a polymerase is defined as the fraction (measured as a percentage fraction) of nucleic acid templates that are extended by at least one nucleotide by the test or reference polymerase under the following reaction conditions: 50 mM Tris, pH 7.0, 50 mM NaCl, 1 mM MnCl2, 1 μM dNTP, 330 nM enzyme, 100 nM primer-template duplex and 0.5% BSA, wherein the extension is performed at room temperature for 10 seconds.
The primer-template duplex was formed by annealing the following polynucleotides: […]

[2] = test system: ωdN4P and non-extendible AF546 primer:template duplex; assay: Stopped-flow t−1 measurement of Example 7; settings: modified versus reference polymerase, ωdN4P 14 μM
Protocol: In this example, the t−1 values of an exemplary modified polymerase comprising the amino acid of SEQ ID NO: 8 and an exemplary reference polymerase comprising the amino acid sequence of SEQ ID NO: 20 were measured and compared. These kinetic parameters were evaluated using an assay system wherein mixtures comprising a test polymerase and a primer:template duplex were mixed in a stopped-flow assay with nucleotides. To measure t−1, the primer used to form the primer:template duplex was a non-extendible primer including a dideoxynucleotide at its 3′ end, and the template was a synthetic DNA template comprising a donor Alexa Fluor 546 moiety at its 5′ end. […] The ternary complex was mixed with unlabeled nucleotides in a stopped-flow experiment, and the resulting fluorescence was monitored as described below. […]
Preincubated mixtures comprising 200 nM of a primer:templex duplex, 660 nM of test polymerase, and 14 μM of ωdN4P were prepared and then mixed with a solution comprising the unlabeled cognate nucleotide (50 μM) in a stopped-flow apparatus. The fluorescence at both 546 nm and 647 nm was monitored following mixing. The averaged stopped-flow fluorescence traces were fitted with a single exponential function having the form of Equation (1) to extrapolate the t−1 value of the test polymerase.

- t−1 [1]: 16
Substance: mB103 (SEQ ID: 8): B103 polymerase triple mutant with D166A, F383L and D384N
- fractional extension activity (primer-template duplex): higher
- estimated t−1 values [2]: comparable
